One assay has as its system MCF7. Description: IR signaling in cancer cells, MCF7. Format: cell-based. To be noted: 10, 100 or 300 nM for 10 minutes.
Another assay addresses T1, IR E697A (Homo sapiens, UniProt P06213, E724A).
T1 construct: expressed in transfected cells; host or cells: 293 FT cells
Description: IR activation assay in 293 FT cells, IR E697A mutant. It is filed as cell-based. Conditions: 10 nM for 10 min.

Another assay has as its system IR signaling. Kind of assay: Insulin signaling in vivo (liver, skeletal muscle, WAT lysates, western blot). Details: species or system mice. The method, then:
2-3 months old male mice were fasted overnight. […] Livers were removed at 3 min after injection. White adipose tissue and skeletal muscles were removed at 5 min and 7 min after injection, respectively. Tissues were mixed with the lysis buffer B supplemented with complete Protease Inhibitor Cocktail (Roche), PhosSTOP (Sigma), and 25 U/ml turbo nuclease (Accelagen), homogenized with FisherbrandTM Bead Mill homogenizer, and then incubated on ice for 1 hr. After centrifuge at 20,817 g at 4° C. for 30 min, the concentrations of cell lysate were measured using Micro BCA Protein Assay Kit (Thermo Scientific). The lysates were then analyzed by quantitative western blotting.
In general terms: In western blotting, separated proteins are transferred to a membrane and probed.

Another assay deals with IR (Mus musculus, UniProt P15208). Description: Insulin receptor endocytosis in vivo (liver sections). Details: from tissue; host or cells: liver of C57BL/6J mice; species or system mice. The protocol: For IR endocytosis assays, the livers were fixed in 10% Neutral Buffered Formalin (NBF) and embedded in paraffin blocks. Sections were deparaffinized, subjected to immunohistochemistry as described in the immunohistochemistry section and previous study.
IR, sequence (P15208 28-748 limits assumed): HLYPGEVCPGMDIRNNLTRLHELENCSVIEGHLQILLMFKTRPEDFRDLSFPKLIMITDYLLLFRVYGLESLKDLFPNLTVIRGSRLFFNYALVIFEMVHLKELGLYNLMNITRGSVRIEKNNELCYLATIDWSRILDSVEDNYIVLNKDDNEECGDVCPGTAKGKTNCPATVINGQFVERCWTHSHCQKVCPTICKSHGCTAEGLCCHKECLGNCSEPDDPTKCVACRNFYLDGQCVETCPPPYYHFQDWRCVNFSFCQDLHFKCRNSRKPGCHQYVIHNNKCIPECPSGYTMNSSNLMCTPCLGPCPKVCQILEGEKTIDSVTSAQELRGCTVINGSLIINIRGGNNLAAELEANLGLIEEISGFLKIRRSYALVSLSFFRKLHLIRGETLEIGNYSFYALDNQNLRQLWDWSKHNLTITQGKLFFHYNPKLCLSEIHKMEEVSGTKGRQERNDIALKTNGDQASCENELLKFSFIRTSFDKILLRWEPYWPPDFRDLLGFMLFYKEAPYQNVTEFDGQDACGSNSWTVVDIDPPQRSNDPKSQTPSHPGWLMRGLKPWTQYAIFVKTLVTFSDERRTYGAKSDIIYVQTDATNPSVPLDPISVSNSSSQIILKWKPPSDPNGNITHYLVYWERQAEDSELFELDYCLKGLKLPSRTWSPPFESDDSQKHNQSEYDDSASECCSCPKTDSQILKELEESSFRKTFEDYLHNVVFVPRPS
IR, sequence (P15208 753-1372 partner limits assumed): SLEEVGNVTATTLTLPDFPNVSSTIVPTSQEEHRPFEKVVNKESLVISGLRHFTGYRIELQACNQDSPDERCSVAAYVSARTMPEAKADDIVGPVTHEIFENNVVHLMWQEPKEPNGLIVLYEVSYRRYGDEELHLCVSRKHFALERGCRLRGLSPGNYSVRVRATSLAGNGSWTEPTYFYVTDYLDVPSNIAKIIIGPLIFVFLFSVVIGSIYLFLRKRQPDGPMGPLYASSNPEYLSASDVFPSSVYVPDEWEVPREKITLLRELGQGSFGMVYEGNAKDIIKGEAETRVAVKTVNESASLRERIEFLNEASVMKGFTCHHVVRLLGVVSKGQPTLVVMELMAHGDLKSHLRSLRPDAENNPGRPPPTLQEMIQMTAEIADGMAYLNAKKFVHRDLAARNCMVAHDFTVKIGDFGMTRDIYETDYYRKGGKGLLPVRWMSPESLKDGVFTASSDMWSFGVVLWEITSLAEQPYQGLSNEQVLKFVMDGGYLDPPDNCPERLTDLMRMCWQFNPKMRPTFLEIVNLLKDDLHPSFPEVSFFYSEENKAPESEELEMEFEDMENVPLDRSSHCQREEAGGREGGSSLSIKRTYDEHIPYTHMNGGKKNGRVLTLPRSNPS
The immunohistochemistry was performed as described earlier with some modifications. Mouse tissues were fixed in 10% NBF and embedded in paraffin blocks by the Molecular Pathology Core at Columbia University. The deparaffinized sections were subjected to antigen retrieval with 10 mM sodium citrate (pH 6.0), incubated with 0.3% H2O2, blocked with 3% bovine serum albumin (BSA), and then incubated with anti-IR antibodies (CT-3, Millipore, Cat. #MABS65, 1:100) in 3% BSA in PBS with 0.1% Triton X-100 (0.1% PBST) at 4° C. overnight. The slides were washed and incubated with secondary antibodies (Alexa Fluor 568 donkey anti-mouse, Invitrogen, Cat. #A10037, 1:200). The washed slides were stained with 4′,6′-diamidino-2-phenylindole (DAPI). Ten images were randomly taken under x60 magnification with a Leica Thunder Imager (Leica Microsystems Inc.). Images of sections were acquired as series of 0.2 μm stacks. The cell edges were defined with Image J as described earlier. The whole cell signal intensity (WC) and intracell cellular intensity (IC) were measured. The plasma membrane signal intensity (PM) was calculated by subtracting IC from WC. […]

The next assay concerns the target T2, IR R14A (Homo sapiens, UniProt P06213, R41A).
T2 construct: expressed in transfected cells; host or cells: 293 FT cells
Kind of assay: IR activation assay in 293 FT cells, IR R14A mutant. Format: cell-based. Conditions: 10 min.

For assay [1], the system named is upstream MAPK pathway proteins (e.g., SOS1, SHP2). Description: Quantitative phosphoproteomics of skeletal muscle. Format: in vivo, mice. Conditions: compared to insulin. The protocol:
FIG. 6A illustrates sequences of S597 and analogs. […] Liver (3 min) and skeletal muscle (5 min) were collected after injection. Quantification of data shown in Mean±SD. […] Two-tailed student t-test; *p<0.05; **p<0.01; ***p<0.001; ****p<0.0001 (PBS set as the control); ††p<0.01 and ††††p<0.0001. […] Compared to insulin-treated samples, blue and red sites indicate downregulation and upregulation of phosphorylation by S597, respectively.

The format of assay [2] is in vivo, mice. Conditions: 50 U/kg once daily for three days; 2 g glucose/kg after 6 hr. fast. The method, then: For oral glucose tolerance test, mice were fasted for 6 hr. and their blood glucose levels (T=0) were measured with tail bleeding using a glucometer (AlphaTRAK). After then, glucose (2 g/kg body weight) was administered by oral gavage. Blood glucose levels were measured at the indicated time points after glucose administration. For FIG. 31F, 2 months old male mice were fasted for 14 hr. […] One hour later livers were collected.

Where [3] appears, read: WAT, compared to vehicle treated conditions.
Where [4] appears, read: liver, injection via inferior vena cava.
Where [5] appears, read: skeletal muscle, injection via inferior vena cava.

Entries after “also recorded” stand apart in the source; their conditions may differ. Bridge positions count the residues as written; N and C are the ends. Peptide text beside a SMILES is read from it.

T2 sequence (P06213 28-1370 isoform P06213-2 R41A limits assumed): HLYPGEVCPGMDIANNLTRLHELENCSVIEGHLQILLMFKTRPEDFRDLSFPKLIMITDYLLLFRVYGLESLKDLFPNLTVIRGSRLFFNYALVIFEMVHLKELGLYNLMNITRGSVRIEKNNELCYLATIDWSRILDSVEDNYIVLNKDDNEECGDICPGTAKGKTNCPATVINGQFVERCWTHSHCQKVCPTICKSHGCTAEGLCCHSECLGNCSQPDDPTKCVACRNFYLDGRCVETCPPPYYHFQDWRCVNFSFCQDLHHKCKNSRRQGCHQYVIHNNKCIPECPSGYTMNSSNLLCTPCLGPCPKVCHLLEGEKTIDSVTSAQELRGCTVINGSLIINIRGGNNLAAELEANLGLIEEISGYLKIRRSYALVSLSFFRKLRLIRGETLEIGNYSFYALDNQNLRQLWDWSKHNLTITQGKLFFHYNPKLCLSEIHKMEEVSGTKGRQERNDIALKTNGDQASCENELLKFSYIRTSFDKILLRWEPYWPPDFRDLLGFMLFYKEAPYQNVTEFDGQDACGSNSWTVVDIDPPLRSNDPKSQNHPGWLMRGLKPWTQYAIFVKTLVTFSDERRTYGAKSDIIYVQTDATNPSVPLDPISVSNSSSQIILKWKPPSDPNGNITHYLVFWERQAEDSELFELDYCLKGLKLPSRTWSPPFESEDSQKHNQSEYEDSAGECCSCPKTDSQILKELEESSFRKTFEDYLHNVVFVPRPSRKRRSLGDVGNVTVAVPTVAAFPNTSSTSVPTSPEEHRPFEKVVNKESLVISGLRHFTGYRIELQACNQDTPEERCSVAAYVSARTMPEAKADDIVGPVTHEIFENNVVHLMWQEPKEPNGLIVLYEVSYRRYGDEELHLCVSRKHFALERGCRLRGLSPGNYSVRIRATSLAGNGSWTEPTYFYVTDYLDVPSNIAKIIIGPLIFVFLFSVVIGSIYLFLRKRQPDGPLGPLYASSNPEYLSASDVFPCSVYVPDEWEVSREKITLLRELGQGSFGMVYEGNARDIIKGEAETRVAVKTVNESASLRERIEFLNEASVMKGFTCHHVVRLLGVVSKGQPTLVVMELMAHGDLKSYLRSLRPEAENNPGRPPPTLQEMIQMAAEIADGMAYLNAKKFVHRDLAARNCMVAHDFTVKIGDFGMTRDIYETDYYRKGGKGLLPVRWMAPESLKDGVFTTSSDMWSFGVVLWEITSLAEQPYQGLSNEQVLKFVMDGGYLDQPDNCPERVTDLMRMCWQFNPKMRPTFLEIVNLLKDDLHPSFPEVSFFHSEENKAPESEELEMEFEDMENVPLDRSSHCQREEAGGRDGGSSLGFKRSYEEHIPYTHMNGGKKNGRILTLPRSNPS
T2 sequence (P06213 763-1382 partner limits assumed): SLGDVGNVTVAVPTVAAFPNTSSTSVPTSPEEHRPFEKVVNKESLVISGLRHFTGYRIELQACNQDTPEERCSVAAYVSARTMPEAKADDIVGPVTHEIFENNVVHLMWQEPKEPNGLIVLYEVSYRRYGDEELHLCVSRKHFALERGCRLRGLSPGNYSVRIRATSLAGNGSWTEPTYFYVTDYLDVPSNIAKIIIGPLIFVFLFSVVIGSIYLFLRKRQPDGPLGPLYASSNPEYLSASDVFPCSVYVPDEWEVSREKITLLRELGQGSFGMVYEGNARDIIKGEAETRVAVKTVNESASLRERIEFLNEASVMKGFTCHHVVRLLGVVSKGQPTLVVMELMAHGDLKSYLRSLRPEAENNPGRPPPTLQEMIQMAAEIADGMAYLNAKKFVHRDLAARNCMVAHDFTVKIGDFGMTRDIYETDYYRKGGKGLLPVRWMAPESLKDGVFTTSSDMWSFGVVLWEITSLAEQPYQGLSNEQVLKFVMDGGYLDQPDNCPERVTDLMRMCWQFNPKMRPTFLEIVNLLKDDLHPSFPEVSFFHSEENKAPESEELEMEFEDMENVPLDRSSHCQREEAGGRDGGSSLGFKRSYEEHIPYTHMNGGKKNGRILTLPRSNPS
T1 sequence (P06213 28-1370 isoform P06213-2 E724A limits assumed): as the sequence (P06213 28-1370 isoform P06213-2 R41A limits assumed) above, with A14R, E697A counted along it
T1 sequence (P06213 763-1382 partner limits assumed): as the sequence (P06213 763-1382 partner limits assumed) above

For the compound `CC[C@H](C)[C@H](NC(=O)[C@H](CCC(N)=O)NC(=O)[C@H](C)NC(=O)[C@H](Cc1c[nH]c2ccccc12)NC(=O)[C@H](CCC(=O)O)NC(=O)[C@H](CCC(=O)O)NC(=O)[C@H](CCC(=O)O)NC(=O)[C@H](CC(C)C)NC(=O)[C@H](CO)NC(C)=O)C(=O)N[C@@H](CCC(=O)O)C(=O)N[C@H]1CSSC[C@@H](C(=O)N2CCC[C@H]2C(=O)N[C@@H](CO)C(=O)N[C@@H](CCC(=O)O)C(=O)N[C@@H](CO)C(=O)N[C@@H](Cc2ccccc2)C(=O)N[C@@H](Cc2ccc(O)cc2)C(=O)N[C@@H](CC(=O)O)C(=O)N[C@@H](Cc2c[nH]c3ccccc23)C(=O)N[C@@H](Cc2ccccc2)C(=O)N[C@@H](CCC(=O)O)C(=O)N[C@@H](CCCNC(=N)N)C(=O)N[C@@H](CCC(N)=O)C(=O)N[C@@H](CC(C)C)C(N)=O)NC(=O)CNC(=O)[C@H](CCCNC(=N)N)NC(=O)CNC(=O)[C@H](Cc2ccc(O)cc2)NC(=O)[C@H](C(C)C)NC(=O)[C@H](CCC(=O)O)NC1=O` [S597] (Ac-SLEEEWAQIECEVYGRGCPSESFYDWFERQL-NH2; disulfide 11-18), the IR signaling result in the assay with MCF7 is recorded as “failed to activate”. Further, the “IR activation (pY IR)” value on IR E697A and at IR R14A was “fully activated” in each case. The pAKT level entry in the assay with IR signaling (setting [3]) and with IR signaling (setting [5]) was “significantly increased” in each case. Moreover, the pERK level result in the assay on IR signaling (setting [3]) is recorded as “neither insulin nor S597 had a statistically significant effect”; in the assay on IR signaling (setting [4]) it was “increased”; in the assay with IR signaling (setting [5]), “less potent; also recorded: not in the skeletal muscle”. The “pY IR level” value in the assay with IR signaling (WAT, injection via inferior vena cava) is recorded as “robust auto-phosphorylation of the IR, albeit with lower potency than insulin”; in the assay with IR signaling (setting [4]) it was “robust auto-phosphorylation of the IR, albeit with lower potency than insulin”; in the assay with IR signaling (setting [5]), “significantly increased”. Besides, at IR, the “IR endocytosis / internalization” value is “promoted IR internalization”. In addition, the “phosphorylation levels of upstream MAPK pathway proteins (e.g., SOS1, SHP2)” value in assay [1] is reported as “significantly reduced”. In addition, the “area under curve (AUC) for blood glucose during OGTT” value in assay [2] is reported as “No significant”.

These data come from patent US20250250303A1 (THE TRUSTEES OF COLUMBIA UNIVERSITY IN THE CITY OF NEW YORK, priority 2022, published 2025).
